The record followed here is patent US10577373B2, “TYK2 inhibitors and uses thereof” (Nimbus Lakshmi, Inc., priority 2017, dated 2020).

Where two headings read alike, the source gives them in different places. Some results are limits rather than exact numbers.

For test [1], the system named is GM-CSF induced STAT5 phosphorylation mediated by the JAK2/JAK2 homdimeric complex. Kind of test: GM-CSF Induced pSTAT5 in Human PBMC.
Source text: Human PBMC are isolated from buffy coat and are stored frozen for assays as needed.
Test [2] relates to IL-12 induced STAT4 phophorylation mediated by Tyk2/JAK2 (heterodimeric complex). Nature of the test: IL-12 Induced pSTAT4 in Human PBMC. Particulars: 1.7 ng/mL IL-12. The test is classed as cell-based. An excerpt: The IL-12 Induced pSTAT4 assay evaluates the inhibition of IL-12 induced STAT4 phophorylation mediated by Tyk2/JAK2 (heterodimeric complex).
The mark [3] stands for this setting: Homo sapiens, PBMC, 20 min, read-out: PBMC_GMCSF_pSTAT5 IC50, human PBMC, GM-CSF 5 ng/mL for 20 minutes, pSTAT5.
[4] abbreviates: read-out: PBMC_GMCSF_pSTAT5 IC50, human PBMC, GM-CSF 5 ng/mL for 20 minutes, pSTAT5.

`CNc1cc(Nc2cc(C)cn(-c3cnn(C)c3)c2=O)nc2c(C(=O)NC3CCC3)cnn12` [I-234]: the half-inhibitory concentration (IC50) in test [1] (setting [3]) was over 2.5 µM; in test [2], under 0.1 µM.
Taken in the same sequence, the figures for `[2H]C([2H])([2H])Nc1cc(Nc2cccnc2OC)nc2c(C(=O)N[C@@H]3C[C@@H]3F)cnn12` (stereo in doubt) [I-374, N-((1R,2S)-2-fluorocyclopropyl)-5-((2-methoxypyridin-3-yl)amino)-7-((methyl-d3)amino)pyrazolo[1,5-a]pyrimidine-3-carboxamide] were over 50 µM and under 0.1 µM.
The like results for `CNc1cc(Nc2cc(F)cnc2OC)nc2c(C(=O)NCC(C)(C)CO)cnn12` [I-283] were, in that order, over 50 µM and under 0.1 µM.
Turning to `CNc1cc(Nc2cccn([C@@H]3CCCOC3)c2=O)nc2c(C(=O)N[C@H]3CC[C@H]3O)cnn12` [I-751], the figures for the IC50 in test [1] (setting [3]) and in test [2] were over 12.5 µM and under 0.1 µM, respectively.
For `CNc1cc(Nc2cccc3ocnc23)nc2c(C(=O)N[C@@H]3CC[C@@H]3O)cnn12` [I-661], the values for the IC50 in test [1] (setting [4]) and in test [2] were over 12.5 µM and under 0.1 µM, respectively.
Taken in the same sequence, the figures for `CNc1cc(Nc2cccn(-c3ncc(C)s3)c2=O)nc2c(C(=O)N[C@@H]3CC[C@@H]3O)cnn12` [I-677] were over 2.5 µM and under 0.1 µM.
`CNc1cc(Nc2cccnc2OC)nc2c(C(=O)N[C@H]3CC[C@H]3O)cnn12` [I-429]: the IC50 was over 50 µM in test [1] (setting [3]) and under 0.1 µM in test [2].
Consider `CNc1cc(Nc2cccnc2OC)nc2c(C(=O)N[C@H]3CC[C@@H]3O)cnn12` [I-395], for which the IC50 in test [1] (setting [4]) was over 12.5 µM; in test [2] it was under 0.1 µM.
On to `CNc1cc(Nc2cccn([C@H]3CC[C@H](OC)CC3)c2=O)nc2c(C(=O)NCC3(CO)CC3)cnn12` [I-545], for which the values for the IC50 in test [1] (setting [3]) and in test [2] were over 2.5 µM and 0.1 to 0.5 µM, respectively.
Taken in the same sequence, the figures for `CNc1cc(Nc2cc(C)cc(F)c2)nc2c(C(=O)NC3CC3)cnn12` [I-6] were over 50 µM and under 0.1 µM.
`CNc1cc(Nc2cccn(-c3cnn(CC4CCOCC4)c3)c2=O)nc2c(C(=O)N[C@H]3C[C@H]3F)cnn12` [I-407]: the half-inhibitory concentration (IC50) in test [1] (setting [3]) is over 12.5 µM; in test [2], under 0.1 µM.
Taken in the same sequence, the figures for `CNc1cc(Nc2cccc(-c3nccs3)c2Cl)nc2c(C(N)=O)cnn12` [I-16] were over 2.5 µM and under 0.1 µM.
For the compound `CNc1cc(Nc2cccn(-c3ccc(N4CCOCC4)cn3)c2=O)nc2c(C(=O)NC3CCC3)cnn12` [I-163], the IC50 in test [1] (setting [3]) was over 2.5 µM; in test [2], under 0.1 µM.
Taken in the same sequence, the figures for `CNc1cc(Nc2cccnc2OC2CC2)nc2c(C(=O)N[C@H]3CC[C@@H]3O)cnn12` [I-397] were over 50 µM and under 0.1 µM.
Turning to `CNc1cc(Nc2cc(Cl)cn(-c3cnc(C(=O)N(C)C)cn3)c2=O)nc2c(C(=O)N[C@H]3C[C@H]3F)cnn12` [I-319], the values for the half-maximal inhibitory concentration (IC50) in test [1] (setting [3]) and in test [2] were over 2.5 µM and under 0.1 µM, respectively.
The like results for `CNc1cc(Nc2cc(Cl)cn(-c3ccnc(C)n3)c2=O)nc2c(C(=O)N[C@H]3C[C@H]3F)cnn12` [I-317] were, in that order, over 2.5 µM and under 0.1 µM.
Taken in the same sequence, the figures for `CNc1cc(Nc2cc(F)cn([C@H]3CCCOC3)c2=O)nc2c(C(=O)N[C@H]3C[C@H]3F)cnn12` [I-559] were over 50 µM and under 0.1 µM.
`CNC(=O)c1occc1Nc1cc(NC)n2ncc(C(=O)N[C@@H]3C[C@@H]3F)c2n1` [I-888, N-((1R,2S)-2-fluorocyclopropyl)-7-(methylamino)-5-((2-(methylcarbamoyl)furan-3-yl)amino)pyrazolo[1,5-a]pyrimidine-3-carboxamide]: the figures for the IC50 in test [1] (setting [3]) and in test [2] were over 50 µM and under 0.1 µM, respectively.
Regarding `CNc1cc(Nc2cccnc2OC2CC2)nc2c(C(=O)NCC(C)(C)CO)cnn12` [I-350], the IC50 in test [1] (setting [3]) was over 50 µM; in test [2], under 0.1 µM.
Taken in the same sequence, the figures for `CNc1cc(Nc2cccn([C@H]3CC[C@H](OC)CC3)c2=O)nc2c(C(=O)NC3CCC3)cnn12` [I-345] were over 50 µM and under 0.1 µM.
Take `CNc1cc(Nc2cccnc2OC)nc2c(C(=O)N[C@@H]3CC[C@H]3O)cnn12` (stereo in doubt) [I-363, N-((1R,2R)-2-hydroxycyclobutyl)-5-((2-methoxypyridin-3-yl)amino)-7-(methylamino)pyrazolo[1,5-a]pyrimidine-3-carboxamide]: the IC50 was over 50 µM in test [1] (setting [4]) and under 0.1 µM in test [2].
As to `CNc1cc(Nc2cccn(-c3ccon3)c2=O)nc2c(C(=O)NC3CCC3)cnn12` [I-158], the values for the IC50 in test [1] (setting [3]) and in test [2] were over 50 µM and under 0.1 µM, respectively.
The like results for `CNc1cc(Nc2cc(Cl)cn(C3CCN(C)CC3)c2=O)nc2c(C(=O)N[C@@H]3C[C@@H]3F)cnn12` [I-789] were, in that order, over 12.5 µM and under 0.1 µM.
The like results for `CNc1cc(Nc2cccn(-c3ccc(C(=O)N4CCCC4)cn3)c2=O)nc2c(C(=O)NC3CCC3)cnn12` [I-121] were, in that order, over 12.5 µM and 0.1 to 0.5 µM.
With `CNc1cc(Nc2cccn([C@H]3CC[C@@](C)(OC)CC3)c2=O)nc2c(C(=O)N[C@H]3C[C@H]3F)cnn12` [I-360], the IC50 in test [1] (setting [3]) was over 50 µM; in test [2], under 0.1 µM.
For `CCONC(=O)c1cnn2c(NC)cc(Nc3cccn(-c4ncccc4F)c3=O)nc12` [I-798, N-ethoxy-5-((3′-fluoro-2-oxo-2H-[1,2′-bipyridin]-3-yl)amino)-7-(methylamino) pyrazolo[1,5-a]pyrimidine-3-carboxamide], the IC50 in test [1] (Homo sapiens, PBMC, 20 min, read-out: PBMC_GMCSF_pSTAT5 IC50) is over 50 µM; in test [2] it was […].
`CNc1cc(Nc2cccnc2OC2CC2)nc2c(C(=O)N[C@@H]3CC[C@@H]3O)cnn12` [I-401]: the figures for the IC50 in test [1] (setting [3]) and in test [2] were over 12.5 µM and under 0.1 µM, respectively.
Take `CNc1cc(-c2c[nH]c3c(C4CCOCC4)cc(Cl)cc23)nc2c(C(N)=O)cnn12` [I-190]: the results for the IC50 in test [1] (setting [3]) and in test [2] were over 12.5 µM and under 0.1 µM, respectively.
Taken in the same sequence, the figures for `CNc1cc(Nc2cccn(-c3ncc(OC)cc3F)c2=O)nc2c(C(=O)N[C@H]3C[C@H]3F)cnn12` [I-673] were over 50 µM and under 0.1 µM.
Taken in the same sequence, the figures for `CNc1cc(Nc2cc(Cl)cn(-c3ccn(C4CC4)n3)c2=O)nc2c(C(=O)NC3CC3)cnn12` [I-331] were over 12.5 µM and under 0.1 µM.
The like results for `CNc1cc(Nc2cccn(-c3ccc(C4CC4)nn3)c2=O)nc2c(C(=O)NC3CCC3)cnn12` [I-240] were, in that order, over 2.5 µM and under 0.1 µM.
On to `CNc1cc(Nc2cccn(-c3ocnc3C)c2=O)nc2c(C(=O)N[C@@H]3C[C@@H]3F)cnn12` [I-790], for which the 50% inhibitory concentration (IC50) in test [1] (setting [3]) was over 12.5 µM; in test [2] it was under 0.1 µM.
Taken in the same sequence, the figures for `CNc1cc(Nc2cccn(-c3ccc(F)cc3)c2=O)nc2c(C(=O)NC3CCC3)cnn12` [I-246] were over 2.5 µM and under 0.1 µM.
The like results for `CNc1cc(Nc2cc(Cl)cn(-c3cnc(C(=O)N(C)C)cn3)c2=O)nc2c(C(=O)NC3CC3)cnn12` [I-318] were, in that order, over 2.5 µM and under 0.1 µM.
Taken in the same sequence, the figures for `CNc1cc(Nc2cc(Cl)cn(C3CCOCC3)c2=O)nc2c(C(=O)N[C@H]3CC[C@@H]3O)cnn12` [I-712] were over 12.5 µM and under 0.1 µM.
As for `CNc1cc(Nc2cc(Cl)cn(-c3ccc(C4CC4)nn3)c2=O)nc2c(C(=O)NC3CC3)cnn12` [I-333], the half-inhibitory concentration (IC50) in test [1] (setting [3]) was over 12.5 µM; in test [2], under 0.1 µM.
Consider `[2H]C([2H])([2H])Oc1ncccc1Nc1cc(NC)n2ncc(C(=O)N[C@H]3CC[C@H](O)C3)c2n1` [I-500], for which the concentration for half-maximal inhibition (IC50) in test [1] (setting [3]) is over 50 µM; in test [2] it was under 0.1 µM.
In the case of `CNc1cc(Nc2cccn([C@H]3CCCOC3)c2=O)nc2c(C(=O)NC3CC3)cnn12` [I-352], the IC50 in test [1] (setting [3]) is over 50 µM; in test [2] it was under 0.1 µM.
The like results for `CNc1cc(Nc2cccn(-c3cccc(C)n3)c2=O)nc2c(C(=O)N[C@H]3C[C@H]3F)cnn12` [I-131] were, in that order, over 12.5 µM and under 0.1 µM.
Take `CNc1cc(Nc2cccn([C@@H]3CCCOC3)c2=O)nc2c(C(=O)N[C@@H]3C[C@@H]3F)cnn12` [I-474]: the IC50 in test [1] (setting [3]) was over 12.5 µM; in test [2], under 0.1 µM.
Consider `CNc1cc(Nc2cccn(C3CCCN(CCF)C3)c2=O)nc2c(C(=O)N[C@@H]3C[C@@H]3F)cnn12` (stereo partly drawn) [I-849], for which the IC50 in test [1] (setting [3]) was over 50 µM; in test [2] it was 0.1 to 0.5 µM.
Turning to `CNc1cc(Nc2cccnc2OC)nc2c(C(=O)N[C@@H]3CC[C@H]3O)cnn12` [I-396], the IC50 is over 50 µM in test [1] (setting [3]) and under 0.1 µM in test [2].
`[2H]C([2H])([2H])Oc1ncccc1Nc1cc(NC)n2ncc(C(=O)NC3CCC3)c2n1` [I-176]: the values for the IC50 in test [1] (setting [3]) and in test [2] were over 50 µM and under 0.1 µM, respectively.
Taken in the same sequence, the figures for `CNc1cc(Nc2cccc3ocnc23)nc2c(C(=O)NCC(C)(C)CO)cnn12` [I-750] were over 2.5 µM and under 0.1 µM.
For the compound `CNc1cc(Nc2cccn([C@H]3CC[C@](C)(OC)CC3)c2=O)nc2c(C(=O)N[C@@H]3CC[C@@H]3O)cnn12` [I-722, N-((1S,2R)-2-hydroxycyclobutyl)-5-((1-((1R,4S)-4-methoxy-4-methylcyclohexyl)-2-oxo-1,2-dihydropyridin-3-yl)amino)-7-(methylamino)pyrazolo[1,5-a]pyrimidine-3-carboxamide], the figures for the IC50 in test [1] (setting [4]) and in test [2] were over 12.5 µM and under 0.1 µM, respectively.
With `CNc1cc(Nc2cccn(-c3ccc(N4CCOCC4)cc3)c2=O)nc2c(C(=O)N[C@H]3C[C@H]3F)cnn12` [I-135], the IC50 was over 2.5 µM in test [1] (setting [3]) and under 0.1 µM in test [2].
On to `CNc1cc(-c2cn(C(C)C)c3ncccc23)nc2c(C(=O)N[C@H]3CC[C@@H]3O)cnn12` [I-639], for which the values for the IC50 in test [1] (setting [4]) and in test [2] were over 12.5 µM and under 0.1 µM, respectively.
For the compound `CNc1cc(-c2cn(CCN3CCN(C)CC3)c3ncccc23)nc2c(C(=O)N[C@H]3CC[C@@H]3OC)cnn12` [I-952], the half-maximal inhibitory concentration (IC50) was over 2.5 µM in test [1] (setting [3]) and 0.1 to 0.5 µM in test [2].
